The values below come from paper PMC9448371, “Synthesis and biological activity evaluation of 3-(hetero) arylideneindolin-2-ones as potential c-Src inhibitors” (Journal of Enzyme Inhibition and Medicinal Chemistry, 2022).

Data set [1] deals with human MCF7 breast cancer cell line. Description: Cytotoxicity, growth inhibition MTS assay. The class given is cell-based. Conditions: mean ± SD, triplicate; for IC50: Homo sapiens, MCF7, 72 h exposure, read-out: MCF-7 (IC50); for MCF-7 (IC50, μM): 72 h exposure. As to the method: Cytotoxicity experiments were carried out using the human MCF7 breast cancer cell line (ATCC HTB-22). […] Compound potency was determined by a growth inhibition assay (CellTiter 96® Aqueous One Solution Cell Proliferation Assay MTS, Promega). 24 h after seeding in a 96-well plate, cells were exposed to the compounds (concentration range 1–100 µM) and 72 h later, 20 µL of 3–(4,5-dimethylthiazol-2-yl)-5–(3-carboxymethoxyphenyl)-2–(4-sulfophenyl)-2H-tetrazolium salt (MTS) was added to each well. […] Experiments were performed in triplicate.
In general terms: Tetrazolium assays rely on reduction of a dye to a coloured formazan, in cell work by metabolically active cells.

Another data set addresses T1, c-Src (Homo sapiens, UniProt P12931).
T1 construct: His6 (N); purchased Merck-Millipore 14–326
Briefly: c-Src kinase inhibition assay (ADP-Glo Kinase Assay). It counts as biochemical. As to conditions: Table 3; for inhibition at 100 µM: read-out: % Inhibition 100 µM; for IC50: read-out: ID50 (the source's name). Here is the method: To avoid peptide adsorption to the plastic surface, protein low-binding tubes were used. ADP-Glo Kinase Assay (Promega) was then used to detect kinase activity accordingly with manufacturer’s instruction with minor modifications. In details, reactions were transferred to white 384 well-plates and stopped by adding 10 µL of ADP-Glo Reagent (Promega) for 50 min at rt. 20 μL of Detection Reagent (Promega) was then added for 30 min and the reaction read using GloMax Discover microplate reader (Promega). Data were plotted using GraphPad Prism 5.0. […] Compounds tested were assumed to act as fully ATP-competitive inhibitors. Therefore, Ki values were calculated accordingly to Equation (2).
A general note: In ADP-Glo the light output rises with the ADP produced.

Where [2] appears, read: 10 µM compound, tested as E/Z mixtures.
Setting [3] is: 100 µM compound, tested as E/Z mixtures.
Setting [4] is: calculated from ID50 assuming fully ATP-competitive inhibition.

“Also recorded” adds a separate entry of the source.

T1 sequence (P12931 whole entry): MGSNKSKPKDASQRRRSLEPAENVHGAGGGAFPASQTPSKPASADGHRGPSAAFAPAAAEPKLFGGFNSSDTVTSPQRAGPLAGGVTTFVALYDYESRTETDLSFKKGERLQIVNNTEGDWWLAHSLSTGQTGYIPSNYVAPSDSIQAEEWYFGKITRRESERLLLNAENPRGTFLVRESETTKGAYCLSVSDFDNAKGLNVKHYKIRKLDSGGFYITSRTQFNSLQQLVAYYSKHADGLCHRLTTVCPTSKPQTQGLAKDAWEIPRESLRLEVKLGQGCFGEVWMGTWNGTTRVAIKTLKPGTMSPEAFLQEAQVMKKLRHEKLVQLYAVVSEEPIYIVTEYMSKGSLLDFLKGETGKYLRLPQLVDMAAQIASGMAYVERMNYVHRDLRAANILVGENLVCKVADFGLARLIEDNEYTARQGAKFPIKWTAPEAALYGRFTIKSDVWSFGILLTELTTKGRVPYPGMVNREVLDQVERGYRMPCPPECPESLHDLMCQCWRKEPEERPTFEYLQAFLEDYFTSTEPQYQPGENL

As a reminder, the melting point is the temperature of the solid-liquid transition. In general, inhibition refers to the percentage by which the read-out fell short of the control. As usually defined, the Ki is the dissociation constant of the complex between target and ligand, obtained from inhibition or displacement. As for `O=C1Nc2cc(Cl)ccc2C1=Cc1ccc([N+](=O)[O-])cc1` [Compound 33, 6-chloro-3–(4-nitrobenzylidene)indolin-2-one], the melting point is 322 to 323 °C (dec.). Besides, the IC50 in data set [1] is above 100 µM. Also, the inhibition at 10 µM at c-Src (setting [2]) amounted to 53 ± 18.1%. For the same compound, the inhibition at 100 µM at c-Src (setting [3]) was 69.94 ± 0.19%. Besides, at c-Src (100 μM ATP), the ID50 entry is “single-digit micromolar” and the IC50 was 2.43 µM. Further, at c-Src (setting [4]), the Ki was 1640 nM and the “Ki (ATP competitive)” value was “single-digit micromolar”.
For the compound `CN(C)c1ccc(C=C2C(=O)Nc3cc(Cl)ccc32)cc1` [Compound 34, 6-chloro-3–(4-(dimethylamino)benzylidene)indolin-2-one], the melting point is 253 to 254 °C. In data set [1], the “MCF-7 (IC50, μM)” value is “did not show any cytotoxic activity” and the IC50 is above 100 µM. Besides, the inhibition at 10 µM at c-Src (setting [2]) worked out at 85%. Besides, the “% Inhibition 10 µM” value at c-Src (10 µM compound, tested as E/Z mixtures, listed as C00033, 10 µM) came out at 85.35 ± 6.98%. Besides, on c-Src (setting [3]), the inhibition at 100 µM was determined as 75.7 ± 7.63%. Also, at c-Src (100 μM ATP), the IC50 was 0.71 µM. The Ki at c-Src (setting [4]) is 480 nM.
For `CCOC(=O)COc1ccc(C=C2C(=O)Nc3cc(Cl)ccc32)cc1` [Compound 43, Ethyl 2–(4-((6-chloro-2-oxoindolin-3-ylidene)methyl)phenoxy) acetate], the melting point is 158 to 159 °C. In addition, the IC50 in data set [1] amounted to 85 ± 2 µM. Also, the inhibition at 10 µM on c-Src (setting [2]) stood at 71.7 ± 2.27%. For the same compound, the “% Inhibition 100 µM” value on c-Src (100 µM compound, tested as E/Z mixtures, 100 µM) is recorded as “good activity”. For the same compound, the inhibition at 100 µM on c-Src (setting [3]) turned out to be 80.8 ± 6.47%. Also, the IC50 on c-Src (100 μM ATP) was 3.24 µM.
In the case of `O=C1Nc2cc(Cl)ccc2C1=Cc1cnc(Br)s1` [Compound 49, 3-((2-bromothiazol-5-yl)methylene)-6-chloroindolin-2-one], the melting point was 262 to 263 °C (dec.). Besides, in data set [1], the “MCF-7 (IC50, μM)” value is listed as “potency comparable to Dasatinib; also recorded: cytotoxicity comparable to that of the reference compound Dasatinib” and the IC50 was 33 ± 2 µM. Further, the inhibition at 10 µM at c-Src (setting [2]) came to 53.9 ± 26.6%. The inhibition at 100 µM at c-Src (setting [3]) was 76.8 ± 9.22%. Also, the IC50 at c-Src (100 μM ATP) was above 10 µM.
In the case of `O=C1Nc2cc(Cl)ccc2C1=Cc1ccc2[nH]ccc2c1` [Compound 50, 3-((1H-indol-5-yl)methylene)-6-chloroindolin-2-one], the melting point was in the range of 238 to 239 °C. The IC50 in data set [1] was found to be 68 ± 2 µM. For the same compound, the inhibition at 10 µM at c-Src (setting [2]) worked out at 41.2 ± 1.12%. Further, on c-Src (setting [3]), the inhibition at 100 µM came to 96.1 ± 1.42%. In addition, the IC50 on c-Src (100 μM ATP) turned out to be 9.14 µM. For the same compound, the inhibition constant (Ki) on c-Src (setting [4]) is 6170 nM.
